Legend:
[1] = test system: activated RAW 264.7 cells; assay: Measurement of NO production via nitrite detection (Griess) in IFN-γ and LPS activated RAW 264.7 cells; format: cell-based, mouse; conditions: for Nitrite Production / Nitrite Production as Percentage of Control: IFN-γ + LPS; for Effect on NO production, in words (Table 2): conditions of Table 2 (2 and 10 μg/ml)
Protocol: (§1) NIH/3T3 (mouse embryo fibroblast, CCRC 60008) and RAW 264.7 (mouse monocyte/macrophage, CCRC 60001) cell lines were obtained from Culture Collection and Research Center (CCRC), Taiwan. Both cell lines were cultured in Dulbecco's modified essential medium (DMEM, GIBCO BRL, Rockville, Md.) containing 1.5 g/L NaHCO3 supplemented with 10% fetal bovine serum (Hyclone, Logan, Utah) and incubated in 5% CO2 at 37° C. Cell cultures were examined for mycoplasma contamination with the fluorescent stain Hoechst 33258 (Hay et al., ATCC Quality Control Methods for Cell Lines, American Type Culture Collection, Manassas, Va., 1992, pp 23-33). All cultures described in the present example were mycoplasma-free.
Two mixtures were prepared. A mixture of collagen type I (rat tail, Sigma, St. Louis, Mo.) was dissolved in 0.1 N acetic acid to produce a 1 mg/ml collagen solution. Chitin was added to 0.1 N acetic acid until a 1 mg/ml mixture was achieved, and the mixture was sonicated for 3 minutes using a Labsonic U sonicator, (Braun Biotech International, Germany). After being autoclaved at 121° C. for 15 minutes, the chitin mixture became a slurry of fine wires. Microtiter tissue culture plates (96-well) were rinsed with Dulbecco's phosphate-buffer saline without Ca^+2 and Mg^+2 (D-PBS, GIBCO BRL). Five microliters of collagen solution or different amounts of the chitin mixture were then added to each well. The plates were then air-dried in a laminar flow hood and stored at 4° C. for up to a week.
Nitric oxide (NO) production was indirectly quantified by measuring the accumulation of nitrite (NO2^−) in the culture media using Griess reagents and sodium nitrite as a standard (Green et al., Anal. Biochem. 126:131-138, 1982; and Ignarro et al., Proc. Natl. Acad. Sci. USA 90:8103-8107, 1993). For nitrite assays, RAW 264.7 cells were subcultured in coated 96-well tissue culture plates at 1×10^5 cells/well and incubated for 24 hours. The culture media were changed to phenol red-free, serum-free DMEM containing 100 U/ml interferon-γ(IFN-γ, recombinant murine; GIBCO BRL) and 100 ng/ml lipopolysaccharide (LPS, Escherichia coli serotype 0128:B12; Sigma). The samples were then tested as described in Rollo et al., J. Leukoc. Biol. 60:397-404, 1996.
To measure the effect of chitin on NO production, cells were subcultured directly in the chitin-coated 96-well tissue culture plates. After overnight incubation, cells became adhered to the bottom of chitin-coated wells. The culture media were removed and replaced with media supplemented with IFN-γ and LPS as described above. After 48 hours incubation, […] of culture supernatants were mixed sequentially with equal volumes of 60 mM sulfanilamide (Sigma) in 3 N HCl and 4 mM N-1-naphthylethylenediamine (Sigma) and then shaken for 5 minutes at room temperature as described in Rollo et al., supra. Nitrite concentration was measured by reading the sample's absorbance at 540 nm using a microplate reader (MRX, Dynex Technologies, Inc., VA).

RAW 264.7 cells = assay: Cytotoxicity test (MTT cell growth), RAW 264.7; format: cell-based, mouse
Protocol: as §1
Two mixtures were prepared. […]
For chitin cytotoxicity experiment, cells were subcultured in 96-well tissue culture plates precoated with different amount of chitin or with collagen at a density of 2000 cells/well and incubated for 48 hours. […] Cytotoxicity was measured using the dye 3-(4,5-dimethylthiazol-2-yl)-2,5-diphenyl tetrazolium bromide (MTT; Merck Co., Germany) and following the methods described in Mosmann, J. Immunol. […]
The cytotoxicity associated with chitin and chitosan was evaluated for both mouse embryonic fibroblast NIH/3T3 cells and mouse monocyte-macrophage RAW 264.7 cells. […]

[2] = 5 μl per well (1 mg/ml) coated, 48 hours

Row | Compound | Nitrite Production ([1]; 2 μg/ml in culture medium) [µM] | Nitrite Production as Percentage of Control ([1]; 2 μg/ml in culture medium) [%] | Nitrite Production ([1]; 10 μg/ml in culture medium) [µM] | Nitrite Production as Percentage of Control ([1]; 10 μg/ml in culture medium) [%] | Effect on NO production, in words (Table 2) [1] | Cytotoxicity (MTT) (RAW 264.7 cells) | Nitrite Production [1, 2] [µM] | Nitrite Production as Percentage of Control [1, 2] [%] | Effect on NO production, in words (Table 1) ([1]; conditions of Table 1)
1 | CC(=O)N[C@H]1[C@H](O[C@H]2[C@H](O)[C@@H](NC(C)=O)[C@H](O[C@H]3[C@H](O)[C@@H](NC(C)=O)C(O)O[C@@H]3CO)O[C@@H]2CO)O[C@H](CO)[C@@H](O[C@@H]2O[C@H](CO)[C@@H](O[C@@H]3O[C@H](CO)[C@@H](O[C@@H]4O[C@H](CO)[C@@H](O)[C@H](O)[C@H]4NC(C)=O)[C@H](O)[C@H]3NC(C)=O)[C@H](O)[C@H]2NC(C)=O)[C@@H]1O (stereo partly shown) [chitohexose] | 41.3 ± 0.8 | 63 | 35.8 ± 2.9 | 54.5 | did substantially decrease NO production |  |  |  | 
2 | chitotetraose | 63.4 ± 0.5 | 96.6 | 61.3 ± 0.6 | 93.4 |  |  |  |  | 
3 | N[C@H]1C(O)O[C@H](CO)[C@@H](O)[C@@H]1O (stereo partly shown) [glucosamine, reference compound] |  |  | 64.3 ± 0.8 | 98.0 |  | not cytotoxic |  |  | 
4 | CC(=O)N[C@H]1C(O)O[C@H](CO)[C@@H](O)[C@@H]1O (stereo partly shown) [NAGA, N-acetylglucosamine, reference compound] |  |  | 66.7 ± 0.9 | 102 |  | not cytotoxic |  |  | 
5 | CC(=O)N[C@H]1[C@H](O[C@H]2[C@H](O)[C@@H](NC(C)=O)C(O)O[C@@H]2CO)O[C@H](CO)[C@@H](O[C@@H]2O[C@H](CO)[C@@H](O)[C@H](O)[C@H]2NC(C)=O)[C@@H]1O (stereo partly shown) [chitotriose] | 61.5 ± 0.9 | 93.8 | 61.1 ± 0.2 | 93.1 |  |  |  |  | 
6 | CC(=O)N[C@H]1[C@H](O[C@H]2[C@H](O)[C@@H](NC(C)=O)C(O)O[C@@H]2CO)O[C@H](CO)[C@@H](O)[C@@H]1O (stereo partly drawn) [chitobiose, 2-acetamido-2-deoxy-4-O-(2-acetamido-2-deoxy-b-D-glucopyranosyl)-D-glucopyranose] | 64.9 ± 0.8 | 98.9 | 64.1 ± 0.9 | 97.7 |  |  |  |  | 
7 | Collagen: collagen type I (rat tail, Sigma), coating comparison [reference compound] |  |  |  |  |  |  | 73.4 ± 0.9 | 99 | did not significantly affect NO production
8 | CC(=O)N[C@@H]1[C@@H](O)[C@H](O[C@@H]2O[C@H](CO)[C@@H](O[C@@H]3O[C@H](CO)[C@@H](O[C@@H]4O[C@H](CO)[C@@H](O[C@@H]5O[C@H](CO)[C@@H](O)[C@H](O)[C@H]5NC(C)=O)[C@H](O)[C@H]4NC(C)=O)[C@H](O)[C@H]3NC(C)=O)[C@H](O)[C@H]2NC(C)=O)[C@@H](CO)O[C@H]1O [chitopentose] | 47.0 ± 0.5 | 70.6 | 42.7 ± 1.2 | 65.1 | did substantially decrease NO production |  |  |  | 

— US6653294B2, “Use of chitinous materials for inhibiting cellular nitric oxide production” (Food Industry Research & Development Institute, priority 2000, dated 2003)
